# Molecular target: T1, IRAK4 (Homo sapiens, UniProt Q9NWZ3)
# T1 sequence (Q9NWZ3 1-460): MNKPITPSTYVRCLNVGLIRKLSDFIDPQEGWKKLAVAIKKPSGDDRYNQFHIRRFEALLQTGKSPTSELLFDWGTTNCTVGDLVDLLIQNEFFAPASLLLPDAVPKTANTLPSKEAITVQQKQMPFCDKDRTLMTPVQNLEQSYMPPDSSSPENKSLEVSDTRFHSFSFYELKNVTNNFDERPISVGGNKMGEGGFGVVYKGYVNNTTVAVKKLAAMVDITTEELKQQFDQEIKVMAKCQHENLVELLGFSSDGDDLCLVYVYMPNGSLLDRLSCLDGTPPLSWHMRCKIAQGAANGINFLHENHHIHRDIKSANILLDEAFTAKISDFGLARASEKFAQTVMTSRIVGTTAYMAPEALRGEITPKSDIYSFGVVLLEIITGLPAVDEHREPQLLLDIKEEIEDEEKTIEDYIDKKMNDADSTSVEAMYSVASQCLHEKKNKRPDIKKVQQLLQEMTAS
# Test: OCI-LY-10 degradation assay (western blot, % IRAK4 degraded after 4 hours)
# Assay type: cell-based
# Parameters: endogenous in cells; host or cells: OCI-LY10
# Details: OCI-LY10 cells, 4 hours; for OCI-LY10 % IRAK4 Degradation (0.01 uM): 0.01 uM compound; for OCI-LY10 % IRAK4 Degradation (0.1 uM): 0.1 uM compound; for OCI-LY10 % IRAK4 Degradation (1 uM): 1 uM compound
# Summary of the method: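 IRAK4 loss after 4 h at 37° C was scored A (>50%), B (>20-50%) or C (<20%) from infrared western blots of RIPA lysates, 20-25 μg protein per lane. Compound was applied at 0.003-10 μM final to OCI-LY10 cells cultured in RPMI-1640 with 20% FBS and 55 μM 2-ME.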
OCI-LY10 % IRAK4 Degradation (0.01 uM),OCI-LY10 % IRAK4 Degradation (0.1 uM),OCI-LY10 % IRAK4 Degradation (1 uM),SMILES
C (<20% degradation),A (>50% degradation),B (>20-50% degradation),NC(=O)c1nn(-c2ccc(CNCCOCCCc3cccc4c3CN(C3CCC(=O)NC3=O)C4=O)cc2)cc1NC(=O)c1coc(-c2ccnc(NCC(F)(F)F)c2)n1 (stereo not drawn) [I-318]
C (<20% degradation),C (<20% degradation),A (>50% degradation),NC(=O)c1nn(-c2ccc(CNCCOCCOCCOCCOCCCc3cccc4c3C(=O)N(C3CCC(=O)NC3=O)C4=O)cc2)cc1NC(=O)c1coc(-c2ccnc(NCC(F)(F)F)c2)n1 (stereo not drawn) [I-322]
B (>20-50% degradation),A (>50% degradation),A (>50% degradation),NC(=O)c1nn(-c2ccc(CNCCOCCOCCOCCOCC#Cc3cccc4c3C(=O)N(C3CCC(=O)NC3=O)C4=O)cc2)cc1NC(=O)c1coc(-c2ccnc(NCC(F)(F)F)c2)n1 (stereo not drawn) [I-323]
B (>20-50% degradation),A (>50% degradation),B (>20-50% degradation),NC(=O)c1nn(-c2ccc(CNCCOCCOCCCc3cccc4c3CN(C3CCC(=O)NC3=O)C4=O)cc2)cc1NC(=O)c1coc(-c2ccnc(NCC3CC3)c2)n1 (stereo not drawn) [I-324]
B (>20-50% degradation),A (>50% degradation),A (>50% degradation),NC(=O)c1nn(-c2ccc(CNCCOCCOCCOCCCc3cccc4c3CN(C3CCC(=O)NC3=O)C4=O)cc2)cc1NC(=O)c1coc(-c2ccnc(NCC3CC3)c2)n1 (stereo not drawn) [I-325]
B (>20-50% degradation),C (<20% degradation),C (<20% degradation),NC(=O)c1nn(CCNCCOCCOCCNc2cccc3c2C(=O)N(C2CCC(=O)NC2=O)C3=O)cc1NC(=O)c1coc(-c2ccnc(NCC3CC3)c2)n1 (stereo not drawn) [I-326]
C (<20% degradation),B (>20-50% degradation),A (>50% degradation),Cn1c(=O)n(C2CCC(=O)NC2=O)c2ccc(CCCOCCOCCNCc3ccc(-n4cc(NC(=O)c5coc(-c6ccnc(NCC(F)(F)F)c6)n5)c(C(N)=O)n4)cc3)cc21 (stereo not drawn) [I-327]
A (>50% degradation),A (>50% degradation),A (>50% degradation),Cn1c(=O)n(C2CCC(=O)NC2=O)c2cccc(CCCOCCOCCNCc3ccc(-n4cc(NC(=O)c5coc(-c6ccnc(NCC(F)(F)F)c6)n5)c(C(N)=O)n4)cc3)c21 (stereo not drawn) [I-328]
B (>20-50% degradation),A (>50% degradation),A (>50% degradation),O=C1CCC(N2C(=O)c3cccc(NCCOCCN4CCO[C@H](CNCc5ccc(-n6cc(NC(=O)c7coc(-c8ccnc(NCC9CC9)c8)n7)c(C(F)F)n6)cc5)C4)c3C2=O)C(=O)N1 (stereo partly drawn) [I-329]

# Second part, the molecule before the results:
SMILES,OCI-LY10 % IRAK4 Degradation (0.01 uM),OCI-LY10 % IRAK4 Degradation (0.1 uM),OCI-LY10 % IRAK4 Degradation (1 uM)
"NC(=O)c1nn(Cc2cn(CCOCCOCCNc3cccc4c3C(=O)N(C3CCC(=O)NC3=O)C4=O)nn2)cc1NC(=O)c1coc(-c2ccnc(NCC3CC3)c2)n1 (stereo not drawn) [I-304, N-[3-carbamoyl-1-[[1-[2-[2-[2-[[2-(2,6-dioxo-3-piperidyl)-1,3-dioxo-isoindolin-4-yl]amino]ethoxy]ethoxy]ethyl]triazol-4-yl]methyl]pyrazol-4-yl]-2-[2-(cyclopropylmethylamino)-4-pyridyl]oxazole-4-carboxamide]",C (<20% degradation),C (<20% degradation),C (<20% degradation)
NC(=O)c1nn(-c2ccc(CNCC3CCCCN3CCOCCNc3cccc4c3C(=O)N(C3CCC(=O)NC3=O)C4=O)cc2)cc1NC(=O)c1coc(-c2ccnc(NCC(F)(F)F)c2)n1 (stereo not drawn) [I-306],C (<20% degradation),B (>20-50% degradation),B (>20-50% degradation)
O=C1CCC(N2C(=O)c3cccc(NCCNCCOCCNCc4ccc(-n5cc(NC(=O)c6coc(-c7ccnc(NCC8CC8)c7)n6)c(C(F)(F)F)n5)cc4)c3C2=O)C(=O)N1 (stereo not drawn) [I-307],C (<20% degradation),C (<20% degradation),C (<20% degradation)
CN(CCOCCOCCCc1ccc2c(c1)C(=O)N(C1CCC(=O)NC1=O)C2=O)Cc1ccc(-n2cc(NC(=O)c3coc(-c4ccncc4)n3)c(C(N)=O)n2)cc1 (stereo not drawn) [I-309],B (>20-50% degradation),A (>50% degradation),A (>50% degradation)
CN(CCOCCOCCCc1ccc2c(c1)C(=O)N(C1CCC(=O)NC1=O)C2=O)Cc1ccc(-n2cc(NC(=O)c3coc(-c4ccnc(NCC5CC5)c4)n3)c(C(F)F)n2)cc1 (stereo not drawn) [I-310],C (<20% degradation),A (>50% degradation),A (>50% degradation)
NC(=O)c1nn(-c2ccc(CNCCCCCOCCCc3cccc4c3C(=O)N(C3CCC(=O)NC3=O)C4=O)cc2)cc1NC(=O)c1coc(-c2ccnc(NCC3CC3)c2)n1 (stereo not drawn) [I-311],C (<20% degradation),A (>50% degradation),A (>50% degradation)
CN(CCCCCOCCCc1cccc2c1C(=O)N(C1CCC(=O)NC1=O)C2=O)Cc1ccc(-n2cc(NC(=O)c3coc(-c4ccnc(NCC5CC5)c4)n3)c(C(N)=O)n2)cc1 (stereo not drawn) [I-312],C (<20% degradation),A (>50% degradation),A (>50% degradation)
CN(CCCCCCc1cccc2c1C(=O)N(C1CCC(=O)NC1=O)C2=O)Cc1ccc(-n2cc(NC(=O)c3coc(-c4ccnc(NCC5CC5)c4)n3)c(C(N)=O)n2)cc1 (stereo not drawn) [I-314],C (<20% degradation),B (>20-50% degradation),B (>20-50% degradation)
CN(CCCCCNCCCc1cccc2c1C(=O)N(C1CCC(=O)NC1=O)C2=O)C(=O)c1ccc(-n2cc(NC(=O)c3coc(-c4ccnc(NCC5CC5)c4)n3)c(C(N)=O)n2)cc1 (stereo not drawn) [I-315],C (<20% degradation),C (<20% degradation),B (>20-50% degradation)
CN(CCCCCCCCCc1cccc2c1C(=O)N(C1CCC(=O)NC1=O)C2=O)Cc1ccc(-n2cc(NC(=O)c3coc(-c4ccnc(NCC5CC5)c4)n3)c(C(N)=O)n2)cc1 (stereo not drawn) [I-316],B (>20-50% degradation),B (>20-50% degradation),B (>20-50% degradation)
NC(=O)c1nn(-c2ccc(CNCCCCCCCCCc3cccc4c3C(=O)N(C3CCC(=O)NC3=O)C4=O)cc2)cc1NC(=O)c1coc(-c2ccnc(NCC3CC3)c2)n1 (stereo not drawn) [I-317],C (<20% degradation),C (<20% degradation),B (>20-50% degradation)

# — patent US10874743B2, “IRAK degraders and uses thereof” (Kymera Therapeutics, Inc., priority 2017, dated 2020)
